Laboratory results taken from EP0262785A1, “N-[2-(4-carboxymethoxyphenyl)-1-methylethyl]-2-hydroxy-2-(3-chlorophenyl)ethane amine, the methyl ester, salt and stereoisomeric forms thereof” (BEECHAM GROUP PLC, priority 1986, dated 1988).

Experiments:
Female CFLP mice = experiment: Anti-hyperglycaemic activity (subcutaneous glucose load, blood glucose curve); type: in vivo; conditions: Dose 0.02 µmol/kg orally as aqueous solution, 6 mice fasted for 24 hours; glucose 1g/kg subcutaneously 30 minutes later; area over the 2 hour period compared with control mice given water
Experimental: Female CFLP mice, weighing approximately 25 g, were fasted for 24 hours prior to the study. The compound under study was administered orally as an aqueous solution to each of 6 mice. 30 minutes later a blood sample (10µl) was obtained from the tail for the analysis of blood glucose. Immediately after taking this blood sample, glucose (1g/kg body weight) was administered subcutaneously to each mouse. 6 mice were given water as a control. Blood samples were then obtained from each mouse at 30 minute intervals for 120 minutes. Compounds that produce a significant (P<0.05) reduction of blood glucose, compared with control mice given water, at any time interval, are considered active. The area under the blood glucose curve over the 2 hour period after the administration of the glucose was calculated for the compound and compared with the value for control animals.

Male Sprague-Dawley rats = experiment: Effect on Energy Expenditure of Rats; type: in vivo; conditions: Dose 0.2 µmol/kg p.o. in water, rats deprived of food, percentage of the rate of energy expenditure of the rats dosed with water
Experimental: Water was provided ad lib at all times. The compounds were administered orally in water to 3 or 4 rats. A further 4 rats were dosed orally with water. The rats were placed in boxes through which air was drawn and the oxygen content of the air leaving the boxes was measured. The energy expenditure of the rats was calculated for 3 hours and for 21 hours after dosing from the volume of air leaving the boxes and its oxygen content, following the principles described by J.B. de V. Weir, J. Physiol. (London) 109, 1-9 (1949). The results are expressed as a percentage of the rate of energy expenditure of the rats dosed with water.

Compound: COC(=O)COc1ccc(C[C@@H](C)NC[C@H](O)c2cccc(Cl)c2)cc1 [Example 1, N-[2-(4-Carbomethoxymethoxyphenyl)-1-(R)-1-methylethyl-2-(R)-2-hydroxy-2-(3-chlorophenyl)ethananine, hemifumarate]
- % Reduction in area under Blood Glucose Curve (Female CFLP mice): 51%
- Mean Energy Expenditure (0-3h) (Male Sprague-Dawley rats; 3 hours after dosing): 134 percentage
- Mean Energy Expenditure (0-21h) (Male Sprague-Dawley rats; 21 hours after dosing): 111 percentage
